The values below come from article PMC6934184, “Selective DNA-PKcs inhibition extends the therapeutic index of localized radiotherapy and chemotherapy” (The Journal of Clinical Investigation, 2019).

The target in the assay is T1, MYO3B (MYO3 beta) (Homo sapiens, UniProt Q8WXR4).
T1 construct: purchased Thermo Fisher Scientific (Life Technologies) SelectScreen
Put plainly: SelectScreen LanthaScreen. Particulars: read-out: % displacement. The class given is binding. The method, boiled down: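 NU5455 was profiled across the SelectScreen Broad panel of kinase activity and binding assays. Z'LYTE reactions such as CSF1R ran at apparent Km ATP, while the Adapta CAMK1 assay used ATP listed as 10. Values are given as percent.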

T1 sequence (Q8WXR4 whole entry): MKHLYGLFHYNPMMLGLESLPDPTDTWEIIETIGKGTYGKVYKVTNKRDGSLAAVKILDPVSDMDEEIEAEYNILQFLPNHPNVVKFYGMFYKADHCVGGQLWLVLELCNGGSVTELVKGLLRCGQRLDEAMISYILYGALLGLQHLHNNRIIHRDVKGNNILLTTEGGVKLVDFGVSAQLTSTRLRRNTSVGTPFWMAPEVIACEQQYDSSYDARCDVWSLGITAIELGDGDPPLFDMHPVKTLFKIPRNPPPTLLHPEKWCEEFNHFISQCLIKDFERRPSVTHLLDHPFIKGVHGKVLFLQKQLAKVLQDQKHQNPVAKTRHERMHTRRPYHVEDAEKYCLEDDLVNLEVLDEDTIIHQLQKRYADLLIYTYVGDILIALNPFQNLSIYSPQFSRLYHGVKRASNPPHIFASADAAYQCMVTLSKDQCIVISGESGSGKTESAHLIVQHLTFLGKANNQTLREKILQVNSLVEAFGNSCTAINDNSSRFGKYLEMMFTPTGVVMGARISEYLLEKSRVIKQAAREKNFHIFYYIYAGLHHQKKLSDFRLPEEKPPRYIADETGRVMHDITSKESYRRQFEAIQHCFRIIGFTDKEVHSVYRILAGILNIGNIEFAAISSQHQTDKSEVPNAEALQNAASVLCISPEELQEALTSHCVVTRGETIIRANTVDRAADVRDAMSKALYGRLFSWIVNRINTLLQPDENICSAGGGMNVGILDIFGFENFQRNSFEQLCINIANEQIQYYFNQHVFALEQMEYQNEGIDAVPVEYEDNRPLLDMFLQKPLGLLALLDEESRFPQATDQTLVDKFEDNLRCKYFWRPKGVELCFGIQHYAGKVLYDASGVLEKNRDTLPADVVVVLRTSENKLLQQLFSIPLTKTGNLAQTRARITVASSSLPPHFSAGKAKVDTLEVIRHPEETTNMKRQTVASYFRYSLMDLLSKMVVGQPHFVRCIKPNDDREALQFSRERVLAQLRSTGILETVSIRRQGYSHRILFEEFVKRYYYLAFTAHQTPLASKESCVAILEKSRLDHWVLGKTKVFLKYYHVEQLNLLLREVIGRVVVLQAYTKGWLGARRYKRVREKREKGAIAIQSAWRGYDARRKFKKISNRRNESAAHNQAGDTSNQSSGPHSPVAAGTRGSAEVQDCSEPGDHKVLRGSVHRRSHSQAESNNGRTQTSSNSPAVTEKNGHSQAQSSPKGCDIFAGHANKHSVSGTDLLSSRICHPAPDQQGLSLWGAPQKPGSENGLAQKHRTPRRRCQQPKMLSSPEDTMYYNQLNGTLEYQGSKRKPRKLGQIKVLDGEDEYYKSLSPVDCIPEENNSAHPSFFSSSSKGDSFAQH

Consider `CN(C(=O)CN1CCOCC1)c1ccc2sc3c(-c4cccc5c(=O)cc(N6CC7CCC(C6)O7)oc45)cccc3c2c1` [NU5455], for which the inhibition at 1 µM amounted to 2.3%.
